Patent publication US11426473B2, “Nitrogen-containing compound or salt thereof, or metal complex thereof” (FUJIFILM Corporation, priority 2013, dated 2022)

Columns and labels:
[1] = target: T1, Integrin αvβ3 (Homo sapiens, UniProt P05106+P06756); assay: Integrin αvβ3 binding affinity test; conditions: inhibition of biotinylated vitronectin binding to immobilized αvβ3; read-out: IC50 value αv β3
T1 construct: purchased Chemicon International, Inc
Procedure: (§1) […] αvβ3 (Chemicon International, Inc.) was immobilized on each well of a 96-well plate (Corning Inc.). Each well was blocked with a 1% Block Ace (DS Pharma Biomedical Co., Ltd) solution and then washed with T-PBS (PBS containing 0.05% Tween 20). Evaluation compound solutions having a 2-fold concentration (10 concentrations of 3.16-fold dilutions from 0.3 μmol/L, buffer (20 mM Tris-HCl pH 7.5, 150 mM NaCl, 1 mM CaCl2, 1 mM MgCl2, and 1 mM MnCl2)) and a 4 μg/mL biotinylated vitronectin solution (vitronectin (Upstate Biotechnology Inc.) was labeled with EZ-Link Sulfo-NHS-Biotinylation Kit (Pierce/Thermo Fisher Scientific Inc.) and then concentration-adjusted) were each added at 50 μL/well, and the plate was shaken at room temperature for 2 hours. After washing with T-PBS, a 0.2 μg/mL avidin peroxidase (Pierce/Thermo Fisher Scientific Inc.) solution was added thereto, and the plate was shaken at room temperature for 1 hour. After washing with T-PBS, color was developed by an o-phenylenediamine (Sigma-Aldrich Inc.) solution (the reaction was terminated by the addition of 4 mol/L sulfuric acid), and the absorbance was measured (490 nm, Reference: 595 nm). The IC50 value was calculated using XLfit 3.0 (ID Business Solutions Ltd.). RGDfV (Bachem AG) was measured in duplicate as a QC sample for each plate.

[2] = target: T2, Integrin αvβ5 (Homo sapiens, UniProt P06756+P18084); assay: Integrin αvβ5 binding affinity test; conditions: inhibition of biotinylated vitronectin binding to immobilized αvβ5; read-out: IC50 value αvβ5
T2 construct: purchased Chemicon International, Inc
Procedure: as §1, with “αvβ5” for “αvβ3”, “PBST (10 mM Na2HPO4 pH 7.5, 150 mM NaCl, and 0.01%” for “T-PBS (PBS containing 0.05%”, “PBST,” for “T-PBS,”

T1 sequence (P06756 31-889 limits assumed): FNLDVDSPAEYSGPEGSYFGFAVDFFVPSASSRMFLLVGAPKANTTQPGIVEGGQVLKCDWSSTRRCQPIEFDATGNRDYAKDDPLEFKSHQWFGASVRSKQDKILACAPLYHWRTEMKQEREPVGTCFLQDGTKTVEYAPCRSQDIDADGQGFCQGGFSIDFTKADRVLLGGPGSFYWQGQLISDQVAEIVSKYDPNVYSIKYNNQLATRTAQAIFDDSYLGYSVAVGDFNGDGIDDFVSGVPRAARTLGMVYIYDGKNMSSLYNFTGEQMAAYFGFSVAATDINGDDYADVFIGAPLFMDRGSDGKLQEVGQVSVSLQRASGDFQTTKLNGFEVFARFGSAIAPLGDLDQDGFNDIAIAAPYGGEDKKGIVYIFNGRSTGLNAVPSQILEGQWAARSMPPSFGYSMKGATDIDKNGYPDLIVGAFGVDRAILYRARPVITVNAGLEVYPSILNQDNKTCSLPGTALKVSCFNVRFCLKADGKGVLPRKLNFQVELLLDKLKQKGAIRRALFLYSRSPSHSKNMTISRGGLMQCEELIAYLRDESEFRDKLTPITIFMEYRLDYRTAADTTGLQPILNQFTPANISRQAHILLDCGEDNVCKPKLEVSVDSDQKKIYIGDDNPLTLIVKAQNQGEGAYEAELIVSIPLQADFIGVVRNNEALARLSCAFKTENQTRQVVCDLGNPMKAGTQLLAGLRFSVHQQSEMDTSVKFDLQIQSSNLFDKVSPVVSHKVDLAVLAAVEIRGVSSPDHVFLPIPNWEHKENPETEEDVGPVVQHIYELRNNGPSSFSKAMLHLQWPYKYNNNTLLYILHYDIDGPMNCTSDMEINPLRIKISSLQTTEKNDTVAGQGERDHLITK
T1 sequence (P06756 891-1048 partner limits assumed): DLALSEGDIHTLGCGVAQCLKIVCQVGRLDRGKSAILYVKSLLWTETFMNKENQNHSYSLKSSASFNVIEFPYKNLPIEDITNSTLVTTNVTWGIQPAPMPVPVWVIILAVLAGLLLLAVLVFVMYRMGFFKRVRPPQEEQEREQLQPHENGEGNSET
T1 sequence (P05106 27-788): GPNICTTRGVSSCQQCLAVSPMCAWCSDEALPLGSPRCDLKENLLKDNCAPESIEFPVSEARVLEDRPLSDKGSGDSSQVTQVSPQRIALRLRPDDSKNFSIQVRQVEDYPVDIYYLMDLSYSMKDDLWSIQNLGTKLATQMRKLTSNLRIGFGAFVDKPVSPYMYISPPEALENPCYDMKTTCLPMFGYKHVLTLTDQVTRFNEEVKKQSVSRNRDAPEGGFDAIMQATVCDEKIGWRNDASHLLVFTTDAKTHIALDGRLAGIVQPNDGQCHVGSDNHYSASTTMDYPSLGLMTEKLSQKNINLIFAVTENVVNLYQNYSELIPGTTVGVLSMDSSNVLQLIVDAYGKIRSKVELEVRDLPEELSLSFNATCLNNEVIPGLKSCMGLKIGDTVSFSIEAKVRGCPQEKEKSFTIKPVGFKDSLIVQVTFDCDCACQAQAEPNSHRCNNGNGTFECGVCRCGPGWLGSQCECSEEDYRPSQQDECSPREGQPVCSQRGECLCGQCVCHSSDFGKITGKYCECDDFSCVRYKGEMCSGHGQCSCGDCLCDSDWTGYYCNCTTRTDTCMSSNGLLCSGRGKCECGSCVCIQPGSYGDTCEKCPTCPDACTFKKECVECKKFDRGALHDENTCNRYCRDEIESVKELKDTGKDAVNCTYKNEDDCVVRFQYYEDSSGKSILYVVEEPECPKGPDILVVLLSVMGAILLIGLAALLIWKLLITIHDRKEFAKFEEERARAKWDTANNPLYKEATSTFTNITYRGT
T2 sequence (P06756 31-889 limits assumed): as the sequence (P06756 31-889 limits assumed) above
T2 sequence (P06756 891-1048 partner limits assumed): as the sequence (P06756 891-1048 partner limits assumed) above
T2 sequence (P18084 24-799): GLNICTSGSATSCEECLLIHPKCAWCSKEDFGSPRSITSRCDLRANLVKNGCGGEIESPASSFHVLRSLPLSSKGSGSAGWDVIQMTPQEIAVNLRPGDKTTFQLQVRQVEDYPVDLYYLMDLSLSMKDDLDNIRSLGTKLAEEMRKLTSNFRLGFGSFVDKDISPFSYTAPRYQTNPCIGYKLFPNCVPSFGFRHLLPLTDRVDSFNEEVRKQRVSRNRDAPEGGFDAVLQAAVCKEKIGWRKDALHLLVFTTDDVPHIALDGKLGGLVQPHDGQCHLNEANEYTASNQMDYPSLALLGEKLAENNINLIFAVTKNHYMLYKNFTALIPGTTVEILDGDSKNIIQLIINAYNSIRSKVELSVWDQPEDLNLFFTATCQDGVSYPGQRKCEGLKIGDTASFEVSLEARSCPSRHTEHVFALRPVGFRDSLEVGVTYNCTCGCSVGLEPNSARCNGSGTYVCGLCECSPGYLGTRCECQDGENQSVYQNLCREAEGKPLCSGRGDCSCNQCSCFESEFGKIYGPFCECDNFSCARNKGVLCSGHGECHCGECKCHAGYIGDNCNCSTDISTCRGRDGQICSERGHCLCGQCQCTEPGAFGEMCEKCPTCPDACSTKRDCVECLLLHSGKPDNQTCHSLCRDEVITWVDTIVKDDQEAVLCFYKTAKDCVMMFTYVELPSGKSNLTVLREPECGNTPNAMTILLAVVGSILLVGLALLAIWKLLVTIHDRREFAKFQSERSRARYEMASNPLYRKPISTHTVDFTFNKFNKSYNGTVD

Work on `O=C(O)CC(c1cncc(OCCCC(=O)NCCNC(=O)[C@H](CS(=O)(=O)O)NC(=O)[C@H](CS(=O)(=O)O)NC(=O)CN2CCN(CC(=O)O)CCN(CC(=O)O)CCN(CC(=O)O)CC2)c1)n1ccc2cc(OCCc3ccc4c(n3)NCCC4)ccc21` (stereo partly drawn) [Compound I21, 2,2′,2″-(10-((4R,7R)-16-((5-(2-carboxy-1-(5-(2-(5,6,7,8-tetrahydro-1,8-naphthyridin-2-yl)ethoxy)-1H-indol-1-yl)ethyl)pyridin-3-yl)oxy)-2,5,8,13-tetraoxo-4,7-bis(sulfomethyl)-3,6,9,12-tetraazahexadecyl)-1,4,7,10-tetraazacyclododecane-1,4,7-triyl)triacetic acid] yielded an IC50 [1] of less than 1 nM and an IC50 [2] of less than 1 nM.
For `O=C(O)CC(c1cncc(OCCCC(=O)NCCNC(=O)[C@H](CS(=O)(=O)O)NC(=O)[C@H](CS(=O)(=O)O)NC(=O)CN2CCN(CC(=O)O)CCN(CC(=O)O)CCN(CC(=O)O)CC2)c1)n1ccc2c(CCc3ccc4c(n3)NCCC4)cccc21` (stereo partly drawn) [Compound J9, 2,2′,2″-(10-((4R,7R)-16-((5-(2-carboxy-1-(4-(2-(5,6,7,8-tetrahydro-1,8-naphthyridin-2-yl)ethyl)-1H-indol-1-yl)ethyl)pyridin-3-yl)oxy)-2,5,8,13-tetraoxo-4,7-bis(sulfomethyl)-3,6,9,12-tetraazahexadecyl)-1,4,7,10-tetraazacyclododecane-1,4,7-triyl)triacetic acid], the IC50 [1] was less than 1 nM and the IC50 [2] was 1 to 10 nM.
`Cc1cc(OCCCC(=O)NCCNC(=O)[C@H](CS(=O)(=O)O)NC(=O)CN2CCN(CC(=O)O)CCN(CC(=O)O)CCN(CC(=O)O)CC2)cc(C)c1S(=O)(=O)N[C@H](CNC(=O)CCCCc1ccc2c(n1)NCCC2)C(=O)O` [Compound K8, 2,2′,2′-(10-(2-(((R)-1-((2-(4-(4-(N—((R)-1-carboxy-2-(5-(5,6,7,8-tetrahydro-1,8-naphthyridin-2-yl)pentanamido)ethyl)sulfamoyl)-3,5-dimethylphenoxy)butanamido)ethyl)amino)-1-oxo-3-sulfopropan-2-yl)amino)-2-oxoethyl)-1,4,7,10-tetraazacyclododecane-1,4,7-triyl)triacetic acid] showed an IC50 [1] of less than 1 nM and an IC50 [2] of 1 to 10 nM.
Compound `Cc1cc(OCCCC(=O)NCCNC(=O)[C@H](CS(=O)(=O)O)NC(=O)CC[C@H](NC(=O)CN2CCN(CC(=O)O)CCN(CC(=O)O)CCN(CC(=O)O)CC2)C(=O)N[C@@H](CS(=O)(=O)O)C(=O)NCCNC(=O)CCCOc2cc(C)c(S(=O)(=O)N[C@@H](CNC(=O)c3ccc(CCc4cccc(N)n4)cc3)C(=O)O)c(C)c2)cc(C)c1S(=O)(=O)N[C@@H](CNC(=O)c1ccc(CCc2cccc(N)n2)cc1)C(=O)O` [Compound L10] has an IC50 [1] of less than 1 nM and an IC50 [2] of less than 1 nM.
With `Cc1cc(OCCCC(=O)NCCNC(=O)[C@H](CS(=O)(=O)O)NC(=O)CN2CCN(CC(=O)O)CCN(CC(=O)O)CCN(CC(=O)O)CC2)cc(C)c1S(=O)(=O)N[C@@H](CNC(=O)c1ccc(CCc2cccc(N)n2)cc1)C(=O)O` [Compound M2, 2,2′,2″-(10-(2-(((R)-1-((2-(4-(4-(N—((S)-2-(4-(2-(6-aminopyridin-2-yl)ethyl)benzamido)-1-carboxyethyl)sulfamoyl)-3,5-dimethylphenoxy)butanamido)ethyl)amino)-1-oxo-3-sulfopropan-2-yl)amino)-2-oxoethyl)-1,4,7,10-tetraazacyclododecane-1,4,7-triyl)triacetic acid] the IC50 [1] was less than 1 nM and the IC50 [2] was less than 1 nM.
For `Cc1cc(OCCCC(=O)NCCNC(=O)[C@H](CS(=O)(=O)O)NC(=O)[C@H](CS(=O)(=O)O)NC(=O)CN2CCN(CC(=O)O)CCN(CC(=O)O)CCN(CC(=O)O)CC2)cc(C)c1S(=O)(=O)N[C@@H](CNC(=O)c1ccc(CCc2cccc(N)n2)cc1)C(=O)O` [Compound N3, 2,2′,2″-(10-((4R,7R)-16-(4-(N—((S)-2-(4-(2-(6-aminopyridin-2-yl)ethyl)benzamido)-1-carboxyethyl)sulfamoyl)-3,5-dimethylphenoxy)-2,5,8,13-tetraoxo-4,7-bis(sulfomethyl)-3,6,9,12-tetraazahexadecyl)-1,4,7,10-tetraazacyclododecane-1,4,7-triyl)triacetic acid], the IC50 [1] was less than 1 nM and the IC50 [2] was less than 1 nM.
For `Cc1cc(OCCCC(=O)NCCNC(=O)[C@H](CS(=O)(=O)O)NC(=O)[C@H](CS(=O)(=O)O)NC(=O)CN2CCN(CC(=O)O)CCN(CC(=O)O)CCN(CC(=O)O)CC2)cc(C)c1S(=O)(=O)N[C@@H](CNC(=O)CCCCc1ccc2c(n1)NCCC2)C(=O)O` [Compound O10, 2,2′,2′-(10-((4R,7R)-16-(4-(N—((S)-1-carboxy-2-(5-(5,6,7,8-tetrahydro-1,8-naphthyridin-2-yl)pentanamido)ethyl)sulfamoyl)-3,5-dimethylphenoxy)-2,5,8,13-tetraoxo-4,7-bis(sulfomethyl)-3,6,9,12-tetraazahexadecyl)-1,4,7,10-tetraazacyclododecane-1,4,7-triyl)triacetic acid], the IC50 [1] was less than 1 nM and the IC50 [2] was less than 1 nM.
Compound `Cc1cc(OCCCC(=O)NCCNC(=O)[C@H](CS(=O)(=O)O)NC(=O)CN2CCN(CC(=O)O)CCN(CC(=O)O)CCN(CC(=O)O)CC2)cc(C)c1S(=O)(=O)N[C@@H](CNC(=O)CCCCc1ccc2c(n1)NCCC2)C(=O)O` [Compound P2, 2,2′,2′-(10-(2-(((R)-1-((2-(4-(4-(N—((S)-1-carboxy-2-(5-(5,6,7,8-tetrahydro-1,8-naphthyridin-2-yl)pentanamido)ethyl)sulfamoyl)-3,5-dimethylphenoxy)butanamido)ethyl)amino)-1-oxo-3-sulfopropan-2-yl)amino)-2-oxoethyl)-1,4,7,10-tetraazacyclododecane-1,4,7-triyl)triacetic acid] has an IC50 [1] of less than 1 nM and an IC50 [2] of less than 1 nM.
With `Cc1cc(OCCCC(=O)NCCNC(=O)[C@H](CS(=O)(=O)O)NC(=O)[C@H](CS(=O)(=O)O)NC(=S)Nc2ccc(C[C@@H](CN(CC(=O)O)CC(C)N(CC(=O)O)CC(=O)O)N(CC(=O)O)CC(=O)O)cc2)cc(C)c1S(=O)(=O)N[C@@H](CNC(=O)c1ccc(CCc2ccc3c(n2)NCCC3)cc1)C(=O)O` (stereo partly drawn) [Compound R3, 2,2′-((1-(((S)-2-(bis(carboxymethyl)amino)-3-(4-(3-((R)-1-(((R)-1-((2-(4-(4-(N—((S)-1-carboxy-2-(4-(2-(5,6,7,8-tetrahydro-1,8-naphthyridin-2-yl)ethyl)benzamido)ethyl)sulfamoyl)-3,5-dimethylphenoxy)butanamido)ethyl)amino)-1-oxo-3-sulfopropan-2-yl)amino)-1-oxo-3-sulfopropan-2-yl)thioureido)phenyl)propyl) (carboxymethyl)amino)propan-2-yl)azanediyl)diacetic acid] the IC50 [1] was less than 1 nM and the IC50 [2] was less than 1 nM.
With `Cc1cc(OCCCC(=O)NCCNC(=O)CN2CCN(CC(=O)O)CCN(CC(=O)O)CCN(CC(=O)O)CC2)cc(C)c1S(=O)(=O)N[C@@H](CNC(=O)c1ccc(CCc2ccc3c(n2)NCCC3)cc1)C(=O)O` [Compound S2, (S)-2,2′,2″-(10-(2-((2-(4-(4-(N-(1-carboxy-2-(4-(2-(5,6,7,8-tetrahydro-1,8-naphthyridin-2-yl)ethyl)benzamido)ethyl)sulfamoyl)-3,5-dimethylphenoxy)butanamido)ethyl)amino)-2-oxoethyl)-1,4,7,10-tetraazacyclododecane-1,4,7-triyl)triacetic acid] the IC50 [1] was less than 1 nM and the IC50 [2] was less than 1 nM.
`Cc1cc(OCCCC(=O)NCCNC(=O)[C@H](CS(=O)(=O)O)NC(=O)CN2CCN(CC(=O)O)CCN(CC(=O)O)CCN(CC(=O)O)CC2)cc(C)c1S(=O)(=O)N[C@@H](CNC(=O)CCCCCc1ccc2c(n1)NCCC2)C(=O)O` [Compound W10, 2,2′,2″-(10-(2-(((R)-1-((2-(4-(4-(N—((S)-1-carboxy-2-(6-(5,6,7,8-tetrahydro-1,8-naphthyridin-2-yl)hexanamido)ethyl)sulfamoyl)-3,5-dimethylphenoxy)butanamido)ethyl)amino)-1-oxo-3-sulfopropan-2-yl)amino)-2-oxoethyl)-1,4,7,10-tetraazacyclododecane-1,4,7-triyl)triacetic acid] was tested, and the IC50 [1] was less than 1 nM and the IC50 [2] was 1 to 10 nM.
